According to ChEMBL document CHEMBL2157959, “Reactive metabolites of desipramine and clomipramine: The kinetics of formation and reactivity with DNA” (Bioorg Med Chem, 2012):

Legend:
[1] = Drug metabolism in water assessed as formation of reactive intermediate during drug oxidation at 1 mM in the presence of HRP and H2O2 UV/vis spectrophotometry; assay type: physicochemical; conditions: buffer, 1000 µM
[2] = Drug metabolism in water assessed as formation of 3-chloroiminodibenzyl in the presence of HRP and H2O2 UV/Vis spectrophotometry; assay type: physicochemical; conditions: buffer
[3] = Induction of DNA degradation in calf thymus DNA at 0.5 mM after 1 hr by agarose gel electrophoresis in presence of HRP and H2O2; conditions: cattle, 500 µM
[4] = Induction of DNA degradation in calf thymus DNA at 2 mM after 2 hrs by PCI extraction-based spectrophotometric analysis in presence of HRP and H2O2; conditions: cattle, 2000 µM
[5] = Drug metabolism in sorensen buffer assessed as formation of reactive intermediate during drug oxidation at 92 uM at pH 7.4 up to 24 mins in the presence of HRP and H2O2 by UV/vis spectrophotometry; assay type: physicochemical; conditions: pH 7.4, 0.4 h
[6] = Drug metabolism in sorensen buffer assessed as iminodibenzyl formation at pH 7.4 in the presence of HRP and H2O2 by GC/MS analysis; assay type: physicochemical
[7] = tested on: HRP (horseradish peroxidase); assay: Drug metabolism in sorensen buffer assessed as apparent Km for drug oxidation measured for 20 mins by Michaelis-Menten equation analysis in presence of HRP and H2O2; assay type: physicochemical; conditions: horseradish peroxidase (HRP) with H2O2 in Sorensen buffer
[8] = Drug metabolism in sorensen buffer assessed as formation of reactive intermediate during drug oxidation at 92 uM at pH 7.4 up to 24 mins in the presence of HRP by UV/vis spectrophotometry; assay type: physicochemical; conditions: pH 7.4, 0.4 h
[9] = Drug metabolism in sorensen buffer assessed as formation of reactive intermediate during drug oxidation at 92 uM at pH 7.4 up to 24 mins in the presence of H2O2 by UV/vis spectrophotometry; assay type: physicochemical; conditions: pH 7.4, 0.4 h

Row | Drug metabolism [5] | Drug metabolism [6] | Km at 20 min [7] [mM] | Drug metabolism [8] | Drug metabolism [9] | SMILES | Drug metabolism [1] | Drug metabolism [2] | Activity [3] | Activity [4]
1 | – | – | – | – | – | CN(C)CCCN1c2ccccc2CCc2ccc(Cl)cc21.Cl [CLOMIPRAMINE HYDROCHLORIDE] | Active | Active | Toxic | Toxic
2 | Active | Active | 4.4 | Not Active | Not Active | CNCCCN1c2ccccc2CCc2ccccc21.Cl [DESIPRAMINE HYDROCHLORIDE] | – | – | Toxic | Toxic
